#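 Grown in 96-well plates, cells were treated for 48 hours with each compound at five concentrations. Insufficient inhibition: endpoint recorded as highest concentration tested. TGI denotes the concentration required for complete inhibition of growth.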
# How the values were obtained:
# Assay in all cases: inhibition of tumour cell growth, NCI panel, 48 h
# [1] = system: 786-0 renal
# [2] = system: A498 renal
# [3] = system: A549 NSCLC
# [4] = system: ACHN renal
# [5] = system: BT-549 breast
# [6] = system: CAKI-1 renal
# [7] = system: COLO 205 colon
# [8] = system: DU-145 prostate
# [9] = system: EKVX NSCLC
# [10] = system: HCC-2998 colon
# [11] = system: HCT-116 colon
# [12] = system: HCT-15 colon
# [13] = system: HL-60(TB) leukemia
# [14] = system: HOP-62 NSCLC
# [15] = system: HOP-92 NSCLC
# [16] = system: HS 578T breast
# [17] = system: HT29 colon
# [18] = system: IGROV1 ovarian
# [19] = system: K-562 leukemia
# [20] = system: KM12 colon
# [21] = system: LOX IMVI melanoma
# [22] = system: M14 melanoma
# [23] = system: MALME-3M melanoma
# [24] = system: MCF7 breast
# [25] = system: MDA-MB-231 breast
# [26] = system: MDA-MB-435
# [27] = system: MDA-N
# [28] = system: MOLT-4 leukemia
# [29] = system: NCI-H226 lung
# [30] = system: NCI-H23 lung
# [31] = system: NCI-H522 lung
# [32] = system: NCI/ADR-RES ovarian
# [33] = system: OVCAR-3 ovarian
# [34] = system: OVCAR-4 ovarian
# [35] = system: OVCAR-5 ovarian
# [36] = system: OVCAR-8 ovarian
# [37] = system: PC-3 prostate
# [38] = system: RPMI-8226 leukemia
# [39] = system: RXF 393 renal
# [40] = system: SF-268 CNS
# [41] = system: SF-295 CNS
# [42] = system: SK-MEL-2 melanoma
# [43] = system: SK-MEL-28 melanoma
# [44] = system: SK-MEL-5 melanoma
# [45] = system: SK-OV-3 ovarian
# [46] = system: SN12C renal
# [47] = system: SNB-19 CNS
# [48] = system: SR leukemia
# [49] = system: SW-620 colon
# [50] = system: T-47D breast
# [51] = system: TK-10 renal
# [52] = system: U251 CNS
# [53] = system: UACC-257 melanoma
# [54] = system: UACC-62 melanoma
# [55] = system: UO-31 renal
# [56] = system: CCRF-CEM leukemia
# [57] = system: NCI-H460 lung
# [58] = system: SF-539 CNS
# [59] = system: SNB-75 CNS
smiles,measurement,setting,value
CCC1c2[nH]c3ccccc3c2C[C@H]2C(=O)NC(Cc3ccccc3)C(=O)N12 (stereo partly drawn),TGI,[1],> 100 µM
same,TGI,[2],> 100 µM
same,TGI,[3],> 100 µM
same,TGI,[4],> 100 µM
same,TGI,[5],62.4 µM
same,TGI,[6],98.8 µM
same,TGI,[7],39 µM
same,TGI,[8],> 100 µM
same,TGI,[9],95 µM
same,TGI,[10],62.1 µM
same,TGI,[11],57.1 µM
same,TGI,[12],> 100 µM
same,TGI,[13],47.8 µM
same,TGI,[14],> 100 µM
same,TGI,[15],72.8 µM
same,TGI,[16],47.9 µM
same,TGI,[17],52.6 µM
same,TGI,[18],74.7 µM
same,TGI,[19],> 100 µM
same,TGI,[20],66 µM
same,TGI,[21],45.8 µM
same,TGI,[22],86.1 µM
same,TGI,[23],43.1 µM
same,TGI,[24],> 100 µM
same,TGI,[25],46.2 µM
same,TGI,[26],43.8 µM
same,TGI,[27],67.5 µM
same,TGI,[28],56.9 µM
same,TGI,[29],74.9 µM
same,TGI,[30],> 100 µM
same,TGI,[31],46.6 µM
same,TGI,[32],95.3 µM
same,TGI,[33],94.2 µM
same,TGI,[34],> 100 µM
same,TGI,[35],65.7 µM
same,TGI,[36],> 100 µM
same,TGI,[37],58.2 µM
same,TGI,[38],51.3 µM
same,TGI,[39],53.6 µM
same,TGI,[40],66.3 µM
same,TGI,[41],57.8 µM
same,TGI,[42],41.4 µM
same,TGI,[43],> 100 µM
same,TGI,[44],35.5 µM
same,TGI,[45],> 100 µM
same,TGI,[46],79.9 µM
same,TGI,[47],> 100 µM
same,TGI,[48],53.8 µM
same,TGI,[49],> 100 µM
same,TGI,[50],73.1 µM
same,TGI,[51],> 100 µM
same,TGI,[52],56.3 µM
same,TGI,[53],49.6 µM
same,TGI,[54],38.8 µM
same,TGI,[55],> 100 µM
COC(=O)[C@@H](COC(=O)/C=C/c1ccc(OC(C)=O)c(OC(C)=O)c1)NC(=O)/C=C/c1ccc(OC(C)=O)c(OC(C)=O)c1,TGI,[1],73.7 µM
same,TGI,[2],> 100 µM
same,TGI,[3],> 100 µM
same,TGI,[4],> 100 µM
same,TGI,[5],> 100 µM
same,TGI,[6],48.1 µM
same,TGI,[56],> 100 µM
same,TGI,[7],35.3 µM
same,TGI,[8],60.7 µM
same,TGI,[9],71.5 µM
same,TGI,[10],76.4 µM
same,TGI,[11],39.5 µM
same,TGI,[12],91.4 µM
same,TGI,[13],> 100 µM
same,TGI,[14],75.5 µM
same,TGI,[15],> 100 µM
same,TGI,[16],94.6 µM
same,TGI,[17],88 µM
same,TGI,[18],> 100 µM
same,TGI,[19],> 100 µM
same,TGI,[20],94.6 µM
same,TGI,[21],38.1 µM
same,TGI,[22],73.8 µM
same,TGI,[23],29.2 µM
same,TGI,[24],> 100 µM
same,TGI,[25],82.4 µM
same,TGI,[26],> 100 µM
same,TGI,[27],50.3 µM
same,TGI,[28],> 100 µM
same,TGI,[29],> 100 µM
same,TGI,[30],> 100 µM
same,TGI,[57],47 µM
same,TGI,[31],35.1 µM
same,TGI,[32],> 100 µM
same,TGI,[33],50 µM
same,TGI,[34],57.8 µM
same,TGI,[35],> 100 µM
same,TGI,[36],> 100 µM
same,TGI,[37],> 100 µM
same,TGI,[38],> 100 µM
same,TGI,[39],> 100 µM
same,TGI,[40],> 100 µM
same,TGI,[58],74.7 µM
same,TGI,[42],55.4 µM
same,TGI,[43],> 100 µM
same,TGI,[44],30 µM
same,TGI,[45],> 100 µM
same,TGI,[46],46.7 µM
same,TGI,[47],> 100 µM
same,TGI,[59],> 100 µM
same,TGI,[48],> 100 µM
same,TGI,[49],> 100 µM
same,TGI,[50],34.9 µM
same,TGI,[52],> 100 µM
same,TGI,[53],> 100 µM
same,TGI,[54],45.9 µM
CC(=O)NC1C(OCc2ccccc2)OC(CO)C(O)C1OC(C)C(=O)NC(C(=O)NC(CCC(=O)Nc1ccc2c(c1)CN1C(=O)c3ccccc3C1=N2)C(N)=O)C(C)C (stereo not drawn),TGI,[1],> 100 µM
same,TGI,[2],> 100 µM
same,TGI,[3],> 100 µM
same,TGI,[4],> 100 µM
same,TGI,[5],> 100 µM
same,TGI,[6],> 100 µM
same,TGI,[56],> 100 µM
same,TGI,[7],> 100 µM
same,TGI,[8],> 100 µM
same,TGI,[9],> 100 µM
same,TGI,[10],> 100 µM
same,TGI,[11],> 100 µM
same,TGI,[12],> 100 µM
same,TGI,[13],> 100 µM
same,TGI,[14],> 100 µM
same,TGI,[15],> 100 µM
same,TGI,[16],> 100 µM
same,TGI,[17],> 100 µM
same,TGI,[18],> 100 µM
same,TGI,[19],> 100 µM
same,TGI,[20],> 100 µM
same,TGI,[21],> 100 µM
same,TGI,[22],> 100 µM
same,TGI,[23],> 100 µM
same,TGI,[24],> 100 µM
same,TGI,[25],> 100 µM
same,TGI,[26],> 100 µM
same,TGI,[27],> 100 µM
same,TGI,[28],> 100 µM
same,TGI,[30],> 100 µM
same,TGI,[57],> 100 µM
same,TGI,[32],> 100 µM
same,TGI,[33],> 100 µM
same,TGI,[34],> 100 µM
same,TGI,[35],> 100 µM
same,TGI,[36],> 100 µM
same,TGI,[37],> 100 µM
same,TGI,[38],> 100 µM
same,TGI,[39],> 100 µM
same,TGI,[40],> 100 µM
same,TGI,[41],> 100 µM
same,TGI,[58],> 100 µM
same,TGI,[42],> 100 µM
same,TGI,[43],> 100 µM
same,TGI,[44],> 100 µM
same,TGI,[45],> 100 µM
same,TGI,[46],> 100 µM
same,TGI,[47],> 100 µM
same,TGI,[59],> 100 µM
same,TGI,[48],> 100 µM
same,TGI,[49],> 100 µM
same,TGI,[50],> 100 µM
same,TGI,[51],> 100 µM
same,TGI,[52],> 100 µM
same,TGI,[53],> 100 µM
same,TGI,[54],> 100 µM
same,TGI,[55],> 100 µM

# Reference: PubChem BioAssay (NCI)
